Laboratory results: PubChem BioAssay AID588618 (The Scripps Research Institute Molecular Screening Center, 2011)

Each compound was assayed against Early growth response protein 1 (Homo sapiens) (UniProt P18146) (assay: altered EGR1 protein amount, DLD-1 – DLD1 cells, chemiluminescent western blot, powder samples, counter-screen for KLF5 inhibitor project, late-stage follow-up (AID 588618)). Conditions: DLD-1 cells, 24 h, at 10 µM, hits give high values.
Sequence of Early growth response protein 1 (Homo sapiens) (P18146 whole entry, looked up): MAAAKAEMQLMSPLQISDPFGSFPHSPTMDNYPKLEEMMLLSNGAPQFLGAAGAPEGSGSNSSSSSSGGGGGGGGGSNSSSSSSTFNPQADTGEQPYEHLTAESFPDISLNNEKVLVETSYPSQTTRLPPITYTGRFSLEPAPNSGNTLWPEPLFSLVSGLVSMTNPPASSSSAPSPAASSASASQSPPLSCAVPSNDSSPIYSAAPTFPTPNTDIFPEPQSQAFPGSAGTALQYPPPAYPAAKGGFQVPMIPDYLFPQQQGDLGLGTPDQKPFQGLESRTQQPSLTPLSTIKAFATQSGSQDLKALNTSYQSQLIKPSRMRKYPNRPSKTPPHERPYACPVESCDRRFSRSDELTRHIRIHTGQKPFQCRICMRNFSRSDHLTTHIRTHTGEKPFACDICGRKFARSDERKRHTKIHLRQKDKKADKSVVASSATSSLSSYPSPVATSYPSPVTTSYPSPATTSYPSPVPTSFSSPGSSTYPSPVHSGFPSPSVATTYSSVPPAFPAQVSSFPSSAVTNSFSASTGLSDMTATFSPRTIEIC

Row | Structure (SMILES) | inhibition [%]
1 | CN(C(=O)COC(=O)/C=C/c1cccc([N+](=O)[O-])c1)C1CCS(=O)(=O)C1 (stereo not drawn) | 19.4
2 | CN(C(=O)CNC(=O)/C=C/c1cccc(Cl)c1)C1CCS(=O)(=O)CC1 | 21.1
3 | CN(C(=O)CNC(=O)/C=C/c1cccc(Cl)c1)C1CCS(=O)(=O)C1 (stereo not drawn) | 14.3
